Results taken from US20060142382A1, “Skin lightening composition” (priority 2002, published 2006).

Tested on: Kwl:A-1 brown guinea pigs
Test: Pigmentation inhibitory effect: UVB-induced pigmentation in brown guinea pigs, L value (lightness) by color-difference meter
Assay type: in vivo, guinea pig
Details: 10 ml/kg; for Final day of the test L value: L value (lightness) of the irradiated site on final day (14 days), oral, twice a day, UVB on day 0, 2nd and 4th days; for ΔL value: L value on the observation day minus L value before irradiation, final day (14 days), oral twice a day, larger ΔL values show higher effect
Description: Ultraviolet ray (UVB) irradiation time was examined using two female 6-week-old Kwl:A-1 brown guinea pigs (SPF). That is, one of the guinea pigs was fixed on the abdominal position, and three 2 cm×2 cm square ultraviolet ray irradiating sites were arranged in bilateral symmetry with the dorsal midline between, thus six sites in total. By shading the body except for the ultraviolet ray irradiating sites, an ultraviolet ray (UVB) was irradiated from a distance of 40 cm using five SE lamps (wavelength 250 to 350 nm, F[…]-E, manufactured by TOSHIBA). […] Examination was made by using five female 7-week-old Kwl:A-1 brown guinea pigs (SPF) in one group. That is, each of the guinea pigs was fixed on the abdominal position using a fixation plate on the respective ultraviolet ray irradiating days (on the day of the commencement of sample administration and on the 2nd and 4th days thereafter). One 2 cm×2 cm square arranged on the left or right side with the guinea pig dorsal midline between was used as the ultraviolet ray irradiating site, and the body was shaded except for the ultraviolet ray irradiating site. Two guinea pigs in one group were irradiated with an ultraviolet ray (LTVB) for 11 minutes and 30 seconds, and three guinea pigs in one group, from a distance of 40 cm using five SE lamps (wavelength 250 to 350 nm, F[…]·E, manufactured by TOSHIBA). During the testing period (14 days), each test sample was orally administered twice a day. Each sample solution was administered at a dose of 10 ml/kg. In this case, the administration was carried out after the ultraviolet ray irradiation on each ultraviolet ray irradiation day, or after the judgment on each pigmentation judging day. Before the irradiation on the day of the commencement of test sample administration and on the final day of the test, a ΔL value (L value on the observation day-L value before irradiation) was calculated by measuring L value (lightness) of the irradiated site using a color-difference meter (CR-300, manufactured by MINOLTA CAMERA).

Compound	Final day of the test L value	ΔL value
NC[C@H]1CC[C@H](C(=O)O)CC1 [Sample (2), tranexamic acid]	58.30 ± 1.20	−3.76 ± 1.78
O=C1O[C@H]([C@@H](O)CO)C(O)=C1O [Sample (4), ascorbic acid]	57.35 ± 1.56	−4.76 ± 1.62
N[C@@H](CS)C(=O)O [Sample (3), L-cysteine]	59.52 ± 3.10	−3.32 ± 1.70
